Laboratory results from patent publication US8241845B2, “Steroid 5α-reductase” (Health Research Inc., priority 2005, dated 2012).

T1: SRD5AIII (Homo sapiens, UniProt Q9H8P0)
T1 construct: expressed in transfected cells; host or cells: CV-1 (monkey kidney) cells infected with Ad-SRD5AIII; cell-free homogenate
T1 sequence (Q9H8P0 1-318): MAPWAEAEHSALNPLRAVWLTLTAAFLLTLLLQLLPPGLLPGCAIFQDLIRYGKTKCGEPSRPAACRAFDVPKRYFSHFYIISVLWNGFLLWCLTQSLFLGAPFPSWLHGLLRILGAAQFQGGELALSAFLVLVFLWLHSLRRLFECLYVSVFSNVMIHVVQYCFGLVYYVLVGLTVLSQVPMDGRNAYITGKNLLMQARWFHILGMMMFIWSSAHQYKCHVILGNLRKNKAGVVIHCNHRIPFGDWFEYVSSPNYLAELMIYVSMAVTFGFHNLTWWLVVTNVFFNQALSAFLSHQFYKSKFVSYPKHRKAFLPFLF

B1: SRD5AIII: novel steroid 5α-reductase isozyme, 318 amino acids, SEQ ID NO:2 (protein)
chain: MAPWAEAEHSALNPLRAVWLTLTAAFLLTLLLQLLPPGLLPGCAIFQDLIRYGKTKCGEPSRPAACRAFDVPKRYFSHFYIISVLWNGFLLWCLTQSLFLGAPFPSWLHGLLRILGAAQFQGGELALSAFLVLVFLWLHSLRRLFECLYVSVFSNVMIHVVQYCFGLVYYVLVGLTVLSQVPMDGRNAYITGKNLLMQARWFHILGMMMFIWSSAHQYKCHVILGNLRKNKAGVVIHCNHRIPFGDWFEYVSSPNYLAELMIYVSMAVTFGFHNLTWWLVVTNVFFNQALSAFLSHQFYKSKFVSYPKHRKAFLPFLF
modifications: human

Columns and labels:
[1] = system: prostate cancer (CaP); experiment: Treatment of men with prostate cancer (CaP) with SRD5A inhibitors; assay type: in vivo, human; conditions: patients at Roswell Park Cancer Institute
[2] = system: SRD5A; conditions: cited from earlier work
[3] = system: prostate cancer (CaP); conditions: Thompson et al. 2003; cited from earlier work
[4] = target: T1, SRD5AIII; experiment: Recombinant SRD5AIII in vitro assay (conversion of T to DHT, TLC); assay type: biochemical
Description: Recombinant SRD5AIII in vitro assays. Ad-SRD5AIII infected CV-1 cells and uninfected CV-1 control cells were prepared and assayed for SRD5AIII using methods of Titus et al. (Titus et al. Clin Cancer Res 2005; 11:4365-4371) and Pratis et al. (Pratis et al. J Steroid Biochem Mol Biol 2000; 75:75-82). All steps prior to incubation were carried out at 4° C. SRD5AIII specific activity was expressed in pmol/mg protein/hr using Ad-SRD5AIII infected CV-1 cells.
Ad-SRD5AIII infected CV-1 cells or uninfected CV-1 cells were homogenized in 0.5 ml ice-cold homogenization buffer (50 mM potassium phosphate [pH 7.4], 0.25M sucrose, 1 mM EDTA, 1 mM dithiothreitol, 1 mM fresh phenylmethylsulfonyl chloride, 1× Complete™ protease inhibitor [Roche, Indianapolis, Ind.] using a PowerGen 125 (Fischer Scientific) for two 10-second bursts and sonicated (Branson Sonifier CD200, SmilthKine) at 20% power for 15 one-second bursts. Final homogenates were centrifuged at 500×g for 1 min to remove particulate. The resulting cell free supernatants were placed on ice and used immediately. Protein concentrations were measured using the procedure of Lowry et al. (Lowry et al. J Biol Chem 1951; 193:265-75).
The buffer for all incubations contained 100 mM Tris-citrate, 0.5 mM dithiothreitol, 0.5 mM NADPH and 1 μCi ^3H-testosterone (New England Nuclear, Boston, Mass.). […] Incubations were performed in total volume 250 μl at pH 7.0 and pH 5.0. […]
The conversion of T to dihydrotestosterone (DHT), androstanedione and androsterone was analyzed using thin layer chromatography (TLC, 33). […] Control incubations were analyzed as described above.
The amount of radioactive DHT, androstanedione and androsterone was calculated as percent total radioactivity (^3H) recovered from the thin layer chromatography lane. […]
Anti-6X-His and anti-X-press antibodies were used to evaluate the expression level of 6X-His and X-press-tagged SRD5AIII in infected CV1 cells. […] However, the molecular weight of the detected band was higher than the expected SRD5AIII molecular weight of about 37 kDa. […]

Molecule | Response in patients, early results [1] | Inhibition of SRD5A activity [2] | Efficacy as treatment for CaP [3] | pH optimum [4] | SRD5AIII enzyme activity ([4]; pH 5.0, 1 μM T substrate, n=1) | SRD5AIII specific activity after subtracting background activity ([4]; pH 7.0, 5 μM T substrate, n=3, Ad-SRD5AIII infected CV-1 cell homogenate) [pmol/mg protein/hour]
C[C@]12C=CC(=O)N[C@@H]1CC[C@@H]1[C@@H]2CC[C@]2(C)[C@@H](C(=O)Nc3cc(C(F)(F)F)ccc3C(F)(F)F)CC[C@@H]12 [dutasteride, Dutasteride] | incomplete remission | neither finasteride nor dutasteride inhibits SRD5A activity completely | – | – | – | –
CC(C)(C)NC(=O)[C@H]1CC[C@H]2[C@@H]3CC[C@H]4NC(=O)C=C[C@]4(C)[C@H]3CC[C@]12C [finasteride] | – | neither finasteride nor dutasteride inhibits SRD5A activity completely | Lack of efficacy | – | – | –
B1 | – | – | – | ~7.0 | not detected | 15.6
